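48-hour exposure; five concentrations; linearly interpolated endpoints. Abbreviation: GI50, concentration required for 50% inhibition of growth. The concentration for full growth arrest is given as TGI.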 Residues, ends and D or L forms follow the SMILES beside them. *: point of attachment. Cbz = O=C(OCc1ccccc1)*
What was measured:
Assay in all cases: NCI anticancer screen, dose series, 48 h
MCF7 breast = test system: MCF7 breast
UACC-62 melanoma = test system: UACC-62 melanoma
SK-OV-3 ovarian = test system: SK-OV-3 ovarian
SNB-75 CNS = test system: SNB-75 CNS
A549 NSCLC = test system: A549 NSCLC
PC-3 prostate = test system: PC-3 prostate
NCI-H522 lung = test system: NCI-H522 lung
HCC-2998 colon = test system: HCC-2998 colon
OVCAR-3 ovarian = test system: OVCAR-3 ovarian
RPMI-8226 leukemia = test system: RPMI-8226 leukemia

| SMILES | GI50 (MCF7 breast) | TGI (MCF7 breast) | GI50 (UACC-62 melanoma) | TGI (UACC-62 melanoma) | GI50 (SK-OV-3 ovarian) | TGI (SK-OV-3 ovarian) | GI50 (SNB-75 CNS) | TGI (SNB-75 CNS) | GI50 (A549 NSCLC) | TGI (A549 NSCLC) | GI50 (PC-3 prostate) | TGI (PC-3 prostate) | GI50 (NCI-H522 lung) | TGI (NCI-H522 lung) | GI50 (HCC-2998 colon) | TGI (HCC-2998 colon) | GI50 (OVCAR-3 ovarian) | TGI (OVCAR-3 ovarian) | GI50 (RPMI-8226 leukemia) | TGI (RPMI-8226 leukemia) |
| --- | --- | --- | --- | --- | --- | --- | --- | --- | --- | --- | --- | --- | --- | --- | --- | --- | --- | --- | --- | --- |
| CN(C)CCS(=O)(=O)Nc1cc(-c2ccc3ncc(C#N)c(Nc4ccc(F)c(Cl)c4)c3c2)cnc1Cl | 0.106 µM | 1.39 µM | 0.169 µM | 0.63 µM | 0.299 µM | 1.79 µM | < 0.0152 µM | 0.562 µM | 1.14 µM | 4.79 µM | 0.227 µM | 1.72 µM | 0.202 µM | 0.883 µM | 0.198 µM | 0.393 µM | 0.13 µM | 0.412 µM | 0.223 µM | 0.897 µM |
| CCOC(=O)c1cc(NS(=O)(=O)c2ccc(C)cc2)cc(C(=O)OCC)c1 | 28 µM | > 100 µM | 44.2 µM | > 100 µM | 70.7 µM | > 100 µM | 23.1 µM | 68.9 µM | 41.4 µM | > 100 µM | 47.7 µM | > 100 µM | 34.5 µM | > 100 µM | 19.5 µM | 70.8 µM | 34.5 µM | > 100 µM | 27 µM | > 100 µM |
| O=C1c2c(Cl)c(Cl)c(Cl)c(Cl)c2C(=O)C2(Cl)CC=CCC12Cl (stereo unspecified) | 1.58 µM | 3.55 µM | 1.67 µM | 3.27 µM | 2.92 µM | 10.9 µM | 1.84 µM | 3.34 µM | 4.28 µM | 16.3 µM | 1.8 µM | 3.51 µM | 1.76 µM | 3.52 µM | 1.78 µM | 3.3 µM | 2.02 µM | 3.48 µM | 2.31 µM | 6.12 µM |
| Cc1cccc(Cl)c1NC(=O)c1cnc(Nc2cc(N3CCOCC3)cc(S(C)(=O)=O)c2)s1 | > 8.99 µM | > 10 µM | 0.922 µM | > 10 µM | 0.191 µM | > 8.3 µM | 0.0202 µM | 0.196 µM | 2.16 µM | > 10 µM | 1.46 µM | > 10 µM | 0.264 µM | > 10 µM | > 2.53 µM | > 10 µM | 0.476 µM | > 10 µM | > 10 µM | > 10 µM |
| O=C1NC(=NCCc2ccccn2)S/C1=C\c1ccc2ncccc2c1 | 10.5 µM | > 25 µM | 9.73 µM | > 25 µM | 9.1 µM | > 25 µM | 1.69 µM | > 20.7 µM | 8.29 µM | > 25 µM | 15.1 µM | > 25 µM | 9.02 µM | > 22.6 µM | > 21.4 µM | > 25 µM | 9.88 µM | > 25 µM | 13.1 µM | > 25 µM |
| COc1ccc2c(c1)C(c1cc(OC)c3c(c1)OCO3)C1=C(COC1=O)N2 (stereo unspecified) | 0.261 µM | 27.3 µM | 0.0984 µM | > 100 µM | 0.305 µM | 7.36 µM | 0.381 µM | 37.6 µM | 0.445 µM | > 100 µM | 0.356 µM | > 100 µM | 0.039 µM | 0.232 µM | 0.432 µM |  | 0.205 µM | 0.481 µM | 0.461 µM | > 100 µM |
| COC(=O)CNc1nc(N(C)O)nc(N(C)O)n1 | 3.07 µM | > 100 µM | 4.3 µM | 29.1 µM | 10.3 µM | > 100 µM | 4.2 µM | > 100 µM | 3.44 µM | > 100 µM | > 100 µM | > 100 µM | 3.73 µM | > 100 µM |  |  |  |  | 1.49 µM | > 100 µM |
| COc1cc2c(c(OC)c1OC)-c1c(c3ccc([N+](=O)[O-])cc3c(=O)n1CCCN)C2=O | 14.2 µM | > 50 µM | 9.12 µM | 17 µM | 12.8 µM | 25.1 µM |  |  | 1.32 µM | 3.06 µM | 7.68 µM | 15 µM | 9.63 µM | 19.1 µM | 9.12 µM | 17.6 µM | 10.7 µM | 19.1 µM | 1.29 µM | 3.75 µM |
| COc1cc2nc3cc([N+](=O)[O-])ccc3c(NCCNCC(C)O)c2cc1OC (stereo unspecified) | 0.332 µM | 1.57 µM |  |  | 1.98 µM | 5.35 µM | 0.675 µM | 2.07 µM | 1.43 µM | 5.13 µM | 0.512 µM | 2.46 µM | 0.224 µM | 1.06 µM |  |  | 0.482 µM | 1.74 µM | 1.55 µM | 5.52 µM |
| CC(C)C[C@@H](C=O)NC(=O)[C@H](CC(C)C)NC(=O)[C@H](CC(C)C)NC(=O)OCc1ccccc1 (Cbz-Leu-Leu-Leu-aldehyde) | 0.422 µM | 14 µM | 0.235 µM | 0.548 µM | 0.614 µM | 5.34 µM |  |  | 0.578 µM | 12.8 µM | 0.479 µM | 2.91 µM | 0.212 µM | 0.614 µM | 0.24 µM | 0.631 µM | 0.225 µM | 0.538 µM | 0.356 µM | 13.8 µM |
| Cn1cc(C2=C(c3cn(CCCCCO)c4ccccc34)C(=O)NC2=O)c2ccccc21 | 3.56 µM | > 22.5 µM | 3.99 µM | 9.17 µM | 4.92 µM | 17.8 µM | 1.21 µM | 8.9 µM | 6.19 µM | 24 µM | 6.88 µM | > 24.1 µM | 2.27 µM | 10.6 µM | 7.47 µM | > 20.6 µM | 5.48 µM | 17.3 µM | 6.6 µM | 18.4 µM |
| CN(C)Cc1c(C(=O)NCCOc2ccc(C(=O)NO)cc2)oc2ccccc12 | 0.261 µM |  | 0.151 µM | 0.63 µM | 0.273 µM | 2.01 µM | 0.153 µM | > 40.7 µM | 0.299 µM | 1.98 µM | 0.214 µM | 5.06 µM | 0.0819 µM | 0.574 µM | 0.22 µM | 0.83 µM | 0.272 µM | 0.969 µM | 0.138 µM | 0.662 µM |
